In the NIST ThermoML archive (doi:10.1016/j.jct.2016.08.005):
Numbers after ± are expanded uncertainties.

Settings: Liquid, Vibrating tube method

Cc1ccc(C)s1 [2,5-dimethylthiophene]
Settings	mass density [kg/m3]
283.15 K, 100 kPa	995.51 ± 0.5
283.15 K, 2000 kPa	996.96 ± 0.5
283.15 K, 5000 kPa	999.21 ± 0.5
283.15 K, 7000 kPa	1000.68 ± 0.5
283.15 K, 10000 kPa	1002.83 ± 0.5
283.15 K, 15000 kPa	1006.35 ± 0.5
283.15 K, 20000 kPa	1009.74 ± 0.5
283.15 K, 25000 kPa	1013.04 ± 0.5
283.15 K, 30000 kPa	1016.24 ± 0.5
283.15 K, 35000 kPa	1019.33 ± 0.5
283.15 K, 40000 kPa	1022.34 ± 0.51
283.15 K, 45000 kPa	1025.27 ± 0.51
283.15 K, 50000 kPa	1028.12 ± 0.51
283.15 K, 55000 kPa	1030.9 ± 0.51
283.15 K, 60000 kPa	1033.6 ± 0.51
283.15 K, 65000 kPa	1036.24 ± 0.52
288.15 K, 100 kPa	990.41 ± 0.5
288.15 K, 2000 kPa	991.9 ± 0.5
288.15 K, 5000 kPa	994.21 ± 0.5
288.15 K, 7000 kPa	995.72 ± 0.5
288.15 K, 10000 kPa	997.94 ± 0.5
288.15 K, 15000 kPa	1001.53 ± 0.5
288.15 K, 20000 kPa	1005.01 ± 0.5
288.15 K, 25000 kPa	1008.38 ± 0.5
288.15 K, 30000 kPa	1011.66 ± 0.5
288.15 K, 35000 kPa	1014.81 ± 0.5
288.15 K, 40000 kPa	1017.89 ± 0.5
288.15 K, 45000 kPa	1020.88 ± 0.51
288.15 K, 50000 kPa	1023.78 ± 0.51
288.15 K, 55000 kPa	1026.62 ± 0.51
288.15 K, 60000 kPa	1029.38 ± 0.51
288.15 K, 65000 kPa	1032.06 ± 0.51
293.15 K, 100 kPa	985.3 ± 0.5
293.15 K, 2000 kPa	986.82 ± 0.5
293.15 K, 5000 kPa	989.21 ± 0.5
293.15 K, 7000 kPa	990.74 ± 0.5
293.15 K, 10000 kPa	993.02 ± 0.5
293.15 K, 15000 kPa	996.71 ± 0.5
293.15 K, 20000 kPa	1000.28 ± 0.5
293.15 K, 25000 kPa	1003.72 ± 0.5
293.15 K, 30000 kPa	1007.07 ± 0.5
293.15 K, 35000 kPa	1010.31 ± 0.5
293.15 K, 40000 kPa	1013.45 ± 0.5
293.15 K, 45000 kPa	1016.49 ± 0.5
293.15 K, 50000 kPa	1019.47 ± 0.51
293.15 K, 55000 kPa	1022.35 ± 0.51
293.15 K, 60000 kPa	1025.15 ± 0.51
293.15 K, 65000 kPa	1027.88 ± 0.51
298.15 K, 100 kPa	980.2 ± 0.5
298.15 K, 2000 kPa	981.78 ± 0.5
298.15 K, 5000 kPa	984.2 ± 0.5
298.15 K, 7000 kPa	985.8 ± 0.5
298.15 K, 10000 kPa	988.14 ± 0.5
298.15 K, 15000 kPa	991.93 ± 0.5
298.15 K, 20000 kPa	995.59 ± 0.5
298.15 K, 25000 kPa	999.13 ± 0.5
298.15 K, 30000 kPa	1002.53 ± 0.5
298.15 K, 35000 kPa	1005.84 ± 0.5
298.15 K, 40000 kPa	1009.04 ± 0.5
298.15 K, 45000 kPa	1012.17 ± 0.5
298.15 K, 50000 kPa	1015.2 ± 0.5
298.15 K, 55000 kPa	1018.14 ± 0.51
298.15 K, 60000 kPa	1021.01 ± 0.51
298.15 K, 65000 kPa	1023.8 ± 0.51
303.15 K, 100 kPa	975.1 ± 0.5
303.15 K, 2000 kPa	976.72 ± 0.5
303.15 K, 5000 kPa	979.23 ± 0.5
303.15 K, 7000 kPa	980.88 ± 0.5
303.15 K, 10000 kPa	983.27 ± 0.5
303.15 K, 15000 kPa	987.17 ± 0.5
303.15 K, 20000 kPa	990.9 ± 0.5
303.15 K, 25000 kPa	994.52 ± 0.5
303.15 K, 30000 kPa	998.02 ± 0.5
303.15 K, 35000 kPa	1001.4 ± 0.5
303.15 K, 40000 kPa	1004.69 ± 0.5
303.15 K, 45000 kPa	1007.85 ± 0.5
303.15 K, 50000 kPa	1010.94 ± 0.5
303.15 K, 55000 kPa	1013.93 ± 0.5
303.15 K, 60000 kPa	1016.85 ± 0.51
303.15 K, 65000 kPa	1019.68 ± 0.51
308.15 K, 100 kPa	970 ± 0.5
308.15 K, 2000 kPa	971.66 ± 0.5
308.15 K, 5000 kPa	974.22 ± 0.5
308.15 K, 7000 kPa	975.91 ± 0.5
308.15 K, 10000 kPa	978.38 ± 0.5
308.15 K, 15000 kPa	982.36 ± 0.5
308.15 K, 20000 kPa	986.2 ± 0.5
308.15 K, 25000 kPa	989.91 ± 0.5
308.15 K, 30000 kPa	993.47 ± 0.5
308.15 K, 35000 kPa	996.93 ± 0.5
308.15 K, 40000 kPa	1000.28 ± 0.5
308.15 K, 45000 kPa	1003.53 ± 0.5
308.15 K, 50000 kPa	1006.66 ± 0.5
308.15 K, 55000 kPa	1009.75 ± 0.5
308.15 K, 60000 kPa	1012.72 ± 0.5
308.15 K, 65000 kPa	1015.59 ± 0.51
313.15 K, 100 kPa	964.84 ± 0.5
313.15 K, 2000 kPa	966.6 ± 0.5
313.15 K, 5000 kPa	969.22 ± 0.5
313.15 K, 7000 kPa	970.97 ± 0.5
313.15 K, 10000 kPa	973.5 ± 0.5
313.15 K, 15000 kPa	977.58 ± 0.5
313.15 K, 20000 kPa	981.52 ± 0.5
313.15 K, 25000 kPa	985.31 ± 0.5
313.15 K, 30000 kPa	988.97 ± 0.5
313.15 K, 35000 kPa	992.49 ± 0.5
313.15 K, 40000 kPa	995.92 ± 0.5
313.15 K, 45000 kPa	999.23 ± 0.5
313.15 K, 50000 kPa	1002.44 ± 0.5
313.15 K, 55000 kPa	1005.56 ± 0.5
313.15 K, 60000 kPa	1008.58 ± 0.5
313.15 K, 65000 kPa	1011.53 ± 0.5
318.15 K, 100 kPa	959.75 ± 0.5
318.15 K, 2000 kPa	961.52 ± 0.5
318.15 K, 5000 kPa	964.24 ± 0.5
318.15 K, 7000 kPa	966 ± 0.5
318.15 K, 10000 kPa	968.6 ± 0.5
318.15 K, 15000 kPa	972.8 ± 0.5
318.15 K, 20000 kPa	976.83 ± 0.5
318.15 K, 25000 kPa	980.72 ± 0.5
318.15 K, 30000 kPa	984.44 ± 0.5
318.15 K, 35000 kPa	988.06 ± 0.5
318.15 K, 40000 kPa	991.55 ± 0.5
318.15 K, 45000 kPa	994.93 ± 0.5
318.15 K, 50000 kPa	998.2 ± 0.5
318.15 K, 55000 kPa	1001.39 ± 0.5
318.15 K, 60000 kPa	1004.46 ± 0.5
318.15 K, 65000 kPa	1007.46 ± 0.5
323.15 K, 100 kPa	954.64 ± 0.5
323.15 K, 2000 kPa	956.46 ± 0.5
323.15 K, 5000 kPa	959.26 ± 0.5
323.15 K, 7000 kPa	961.09 ± 0.5
323.15 K, 10000 kPa	963.75 ± 0.5
323.15 K, 15000 kPa	968.05 ± 0.5
323.15 K, 20000 kPa	972.19 ± 0.5
323.15 K, 25000 kPa	976.16 ± 0.5
323.15 K, 30000 kPa	979.99 ± 0.5
323.15 K, 35000 kPa	983.67 ± 0.5
323.15 K, 40000 kPa	987.24 ± 0.5
323.15 K, 45000 kPa	990.69 ± 0.5
323.15 K, 50000 kPa	994.03 ± 0.5
323.15 K, 55000 kPa	997.27 ± 0.5
323.15 K, 60000 kPa	1000.41 ± 0.5
323.15 K, 65000 kPa	1003.46 ± 0.5
328.15 K, 100 kPa	949.46 ± 0.5
328.15 K, 2000 kPa	951.34 ± 0.5
328.15 K, 5000 kPa	954.21 ± 0.5
328.15 K, 7000 kPa	956.1 ± 0.5
328.15 K, 10000 kPa	958.85 ± 0.5
328.15 K, 15000 kPa	963.27 ± 0.5
328.15 K, 20000 kPa	967.5 ± 0.5
328.15 K, 25000 kPa	971.57 ± 0.5
328.15 K, 30000 kPa	975.49 ± 0.5
328.15 K, 35000 kPa	979.25 ± 0.5
328.15 K, 40000 kPa	982.9 ± 0.5
328.15 K, 45000 kPa	986.42 ± 0.5
328.15 K, 50000 kPa	989.84 ± 0.5
328.15 K, 55000 kPa	993.13 ± 0.5
328.15 K, 60000 kPa	996.35 ± 0.5
328.15 K, 65000 kPa	999.44 ± 0.5
333.15 K, 100 kPa	944.28 ± 0.5
333.15 K, 2000 kPa	946.2 ± 0.5
333.15 K, 5000 kPa	949.16 ± 0.5
333.15 K, 7000 kPa	951.09 ± 0.5
333.15 K, 10000 kPa	953.92 ± 0.5
333.15 K, 15000 kPa	958.46 ± 0.5
333.15 K, 20000 kPa	962.79 ± 0.51
333.15 K, 25000 kPa	966.97 ± 0.51
333.15 K, 30000 kPa	970.97 ± 0.51
333.15 K, 35000 kPa	974.83 ± 0.51
333.15 K, 40000 kPa	978.55 ± 0.5
333.15 K, 45000 kPa	982.15 ± 0.5
333.15 K, 50000 kPa	985.62 ± 0.5
333.15 K, 55000 kPa	988.98 ± 0.5
333.15 K, 60000 kPa	992.25 ± 0.5
333.15 K, 65000 kPa	995.41 ± 0.5
338.15 K, 100 kPa	939.09 ± 0.5
338.15 K, 2000 kPa	941.08 ± 0.5
338.15 K, 5000 kPa	944.14 ± 0.5
338.15 K, 7000 kPa	946.13 ± 0.5
338.15 K, 10000 kPa	949.02 ± 0.5
338.15 K, 15000 kPa	953.67 ± 0.51
338.15 K, 20000 kPa	958.14 ± 0.51
338.15 K, 25000 kPa	962.41 ± 0.51
338.15 K, 30000 kPa	966.51 ± 0.51
338.15 K, 35000 kPa	970.46 ± 0.51
338.15 K, 40000 kPa	974.25 ± 0.51
338.15 K, 45000 kPa	977.91 ± 0.51
338.15 K, 50000 kPa	981.46 ± 0.51
338.15 K, 55000 kPa	984.88 ± 0.5
338.15 K, 60000 kPa	988.2 ± 0.5
338.15 K, 65000 kPa	991.43 ± 0.5
